Columns and labels:
Test in all cases: Test A pre-/postemergence plant response
Assay type in all cases: in vivo
[1] = tested on: pigweed (Amaranthus retroflexus); settings: for Pigweed plant response rating: visual injury, 0 to 100 scale (0 no effect, 100 complete control), approx. ten days
Text: (§1) Seeds of barnyardgrass (Echinochloa crus-galli), large crabgrass (Digitaria sanguinalis), giant foxtail (Setaria faberii), morningglory (Ipomoea spp.), pigweed (Amaranthus retroflexus), velvetleaf (Abutilon theophrasti), wheat (Triticum aestivum) and corn (Zea mays) were planted into a blend of loam soil and sand and treated preemergence with a directed soil spray using test chemicals formulated in a non-phytotoxic solvent mixture which included a surfactant. At the same time these species were also treated with postemergence applications of test compounds formulated in the same manner.
(§2) Plants ranged in height from two to ten cm and were in the one- to two-leaf stage for the postemergence treatment. Treated plants and untreated controls were maintained in a greenhouse for approximately ten days, after which time all treated plants were compared to untreated controls and visually evaluated for injury. Plant response ratings, summarized in Table A, are based on a 0 to 100 scale where 0 is no effect and 100 is complete control. A dash (-) response means no test result.

[2] = tested on: corn (Zea mays); settings: for Corn plant response rating: visual injury, 0 to 100 scale (0 no effect, 100 complete control), approx. ten days
Text: as §1, §2

[3] = tested on: wheat (Triticum aestivum); settings: for Wheat plant response rating: visual injury, 0 to 100 scale (0 no effect, 100 complete control), approx. ten days
Text: as §1, §2

[4] = tested on: large crabgrass (Digitaria sanguinalis); settings: for Crabgrass, Large plant response rating: visual injury, 0 to 100 scale (0 no effect, 100 complete control), approx. ten days
Text: as §1, §2

[5] = tested on: giant foxtail (Setaria faberii); settings: for Foxtail, Giant plant response rating: visual injury, 0 to 100 scale (0 no effect, 100 complete control), approx. ten days
Text: as §1, §2

[6] = tested on: morningglory (Ipomoea spp.); settings: for Morningglory plant response rating: visual injury, 0 to 100 scale (0 no effect, 100 complete control), approx. ten days
Text: as §1, §2

[7] = tested on: barnyardgrass (Echinochloa crus-galli); settings: for Barnyardgrass plant response rating: visual injury, 0 to 100 scale (0 no effect, 100 complete control), approx. ten days
Text: as §1, §2

[8] = tested on: velvetleaf (Abutilon theophrasti); settings: for Velvetleaf plant response rating: visual injury, 0 to 100 scale (0 no effect, 100 complete control), approx. ten days
Text: as §1, §2

[9] = Postemergence, 125 g ai/ha, 0 to 100 scale where 0 is no effect and 100 is complete control
[10] = Preemergence, 125 g ai/ha, 0 to 100 scale, 0 = no effect, 100 = complete control
[11] = Preemergence, 500 g ai/ha, 0 to 100 scale, 0 = no effect, 100 = complete control

Row | SMILES | Plant response rating, Pigweed [1, 9] | Pigweed plant response rating ([1]; Postemergence, 500 g ai/ha) | Plant response rating, Pigweed [1, 10] | Plant response rating, Pigweed [1, 11] | Plant response rating, Corn [2, 9] | Corn plant response rating ([2]; Postemergence, 500 g ai/ha) | Plant response rating, Corn [2, 10] | Plant response rating, Corn [2, 11] | Plant response rating, Wheat [3, 9] | Wheat plant response rating ([3]; Postemergence, 500 g ai/ha) | Plant response rating, Wheat [3, 10] | Plant response rating, Wheat [3, 11] | Plant response rating, Crabgrass, Large [4, 9] | Crabgrass, Large plant response rating ([4]; Postemergence, 500 g ai/ha) | Plant response rating, Crabgrass, Large [4, 10] | Plant response rating, Crabgrass, Large [4, 11] | Plant response rating, Foxtail, Giant [5, 9] | Foxtail, Giant plant response rating ([5]; Postemergence, 500 g ai/ha) | Plant response rating, Foxtail, Giant [5, 10] | Plant response rating, Foxtail, Giant [5, 11] | also measured
1 | CCCn1c(-c2ccc3c(c2)OCCO3)ncc(C(=O)C2=C(O)C3CCC(C3)C2=O)c1=O (stereo not shown) [Compound 241] | 70 | 80 | 20 | 50 | 20 | 50 | 0 | 20 | 40 | 60 | 0 | 40 | 50 | 70 | 20 | 90 | 80 | 90 | 10 | 70 | Plant response rating, Morningglory [6, 9]: 100; Morningglory plant response rating ([6]; Postemergence, 500 g ai/ha): 100; Plant response rating, Morningglory [6, 10]: 0; Plant response rating, Morningglory [6, 11]: 30; Plant response rating, Barnyardgrass [7, 9]: 90; Barnyardgrass plant response rating ([7]; Postemergence, 500 g ai/ha): 90; Plant response rating, Barnyardgrass [7, 10]: 10; Plant response rating, Barnyardgrass [7, 11]: 90; Plant response rating, Velvetleaf [8, 9]: 100; Velvetleaf plant response rating ([8]; Postemergence, 500 g ai/ha): 100; Plant response rating, Velvetleaf [8, 10]: 20; Plant response rating, Velvetleaf [8, 11]: 60
2 | CCCn1c(-c2ccc3ccccc3c2)ncc(C(=O)C2=C(O)C3CCC(C3)C2=O)c1=O (stereo not shown) [Compound 242] | 20 | 30 | 0 | 0 | 0 | 20 | 0 | 0 | 0 | 30 | 0 | 0 | 20 | 60 | 0 | 10 | 50 | 80 | 0 | 0 | Plant response rating, Morningglory [6, 9]: 40; Morningglory plant response rating ([6]; Postemergence, 500 g ai/ha): 100; Plant response rating, Morningglory [6, 10]: 0; Plant response rating, Morningglory [6, 11]: 0; Plant response rating, Barnyardgrass [7, 9]: 50; Barnyardgrass plant response rating ([7]; Postemergence, 500 g ai/ha): 90; Plant response rating, Barnyardgrass [7, 10]: 0; Plant response rating, Barnyardgrass [7, 11]: 0; Plant response rating, Velvetleaf [8, 9]: 50; Velvetleaf plant response rating ([8]; Postemergence, 500 g ai/ha): 90; Plant response rating, Velvetleaf [8, 10]: 0; Plant response rating, Velvetleaf [8, 11]: 0
